Earlier results, collected in paper PMC9026741 (Bioorganic chemistry, 2020).

Biological target: T1, Nrp1 (Homo sapiens, UniProt O14786)
T1 sequence (O14786 274-586): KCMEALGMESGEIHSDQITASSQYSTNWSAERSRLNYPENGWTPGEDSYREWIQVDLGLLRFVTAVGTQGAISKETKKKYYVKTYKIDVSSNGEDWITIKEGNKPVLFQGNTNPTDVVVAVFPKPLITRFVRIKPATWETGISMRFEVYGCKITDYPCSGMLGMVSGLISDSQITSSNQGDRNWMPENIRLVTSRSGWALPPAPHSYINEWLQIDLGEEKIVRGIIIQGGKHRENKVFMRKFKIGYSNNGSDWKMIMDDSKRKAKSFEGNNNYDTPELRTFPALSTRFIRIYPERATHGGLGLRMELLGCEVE
Details: Nrp1 over Nrp2

With ATWLPPR as the substance, how does the “preference for Nrp1” value read?
Its value is “two-fold preference for Nrp1”.
